Test results reported in patent publication US6706740B2, “Fungicidal heterocyclic aromatic amides and their compositions, methods of use and preparation” (Dow AgroSciences LLC, priority 1999, dated 2004).
Read-outs that look alike come from different tables or passages of the source.

Experiments:
[1] = test system: Magnaporthe grisea (Pyricularia oryzae—PYRIOR); test: microbe, parasite or virus in culture; format: cell-based; settings: Pyricularia oryzae, read-out: PYRIOR in vitro Growth Inhibition
[2] = test system: Rhizoctonia solani (RHIZSO); test: microbe, parasite or virus in culture; format: cell-based; settings: Rhizoctonia solani, read-out: RHIZSO in vitro Growth Inhibition
[3] = test system: Mycosphaerella graminicola (Septoria tritici—SEPTTR); test: In vitro fungal growth inhibition, Mycosphaerella graminicola (SEPTTR); format: cell-based; settings: Zymoseptoria tritici, read-out: SEPTTR in vitro Growth Inhibition
[4] = test system: Stagonospora nodorum (Leptosphaeria nodorum—LEPTNO); test: In vitro fungal growth inhibition, Stagonospora nodorum (LEPTNO); format: cell-based; settings: Leptosphaeria, read-out: LEPTNO in vitro Growth Inhibition
[5] = test system: Ustilago maydis (USTIMA); test: microbe, parasite or virus in culture; format: cell-based; settings: Mycosarcoma maydis, read-out: USTIMA in vitro Growth Inhibition
[6] = test system: Phytophthora infestans (PHYTIN); test: microbe, parasite or virus in culture; format: cell-based; settings: Phytophthora infestans, read-out: PHYTIN in vitro Growth Inhibition
[7] = test system: Phytophthora infestans—PHYTIN; test: whole plant or invertebrate; format: in vivo; settings: Phytophthora, in Solanum lycopersicum, 24 h, read-out: PHYTIN in vivo 1 Day Protectant
[8] = test system: Puccinia recondita—PUCCRT; test: Brown Rust of Wheat, in vivo whole plant, 24 Hour Protectant; settings: for pest or weed control at 100 ppm: Puccinia, control of fungal infection vs untreated plants, read-out: PUCCRT in vivo 1 Day Protectant; for PUCCRT in vivo 1 Day Protectant: % control of fungal infection vs untreated plants
[9] = test system: Erysiphe graminis—ERYSGT; test: Powdery Mildew of Wheat, in vivo whole plant, 24 Hour Protectant; settings: Erysiphe, read-out: ERYSGT in vivo 1 Day Protectant
[10] = test system: Septoria tritici—SEPTTR; test: Leaf Blotch of Wheat, in vivo whole plant, 24 Hour Protectant; settings: for pest or weed control at 100 ppm: Zymoseptoria tritici, 24 h, read-out: SEPTTR in vivo 1 Day Protectant
[11] = test system: Leptosphaeria nodorum—LEPTNO; test: Glume Blotch of Wheat, in vivo whole plant, 24 Hour Protectant; settings: for pest or weed control at 100 ppm: Leptosphaeria, read-out: LEPTNO in vivo 1 Day Protectant
[12] = 100 ppm spray, wheat, 24 hour protectant
[13] = 100 ppm spray, wheat, 24 hour protectant, control of fungal infection vs untreated plants
[14] = 100 ppm spray, wheat, 24 hour protectant, % control of fungal infection vs untreated plants
[15] = 100 ppm spray, 24 hour protectant, wheat
[16] = 100 ppm spray, 24 hour protectant, wheat, control of fungal infection vs untreated plants
[17] = wheat plants sprayed at 100 ppm, inoculated after 24 hours
[18] = wheat plants sprayed at 100 ppm, inoculated after 24 hours, control of fungal infection vs untreated plants

SMILES	inhibition at 25 ppm [1]	inhibition at 25 ppm [2]	inhibition at 25 ppm ([3]; 25 ppm in growth medium)	inhibition at 25 ppm ([4]; 25 ppm in growth medium)	inhibition at 25 ppm [5]	inhibition at 25 ppm [6]	pest or weed control at 100 ppm [7]	pest or weed control at 100 ppm [8, 12]	pest or weed control at 100 ppm [9, 13]	pest or weed control at 100 ppm [10, 13]	pest or weed control at 100 ppm [11, 13]	other results
COc1ccnc(C(=O)Nc2ccc(/C(=N/O)c3cccc(C(F)(F)F)c3)cc2)c1O [Compound 407]	< 80%	< 80%	> 80%	< 80%	< 80%	< 80%	< 25%	< 25%	< 25%	25 to 74%	25 to 74%	
COc1ccnc(C(=O)N[C@@H]2[C@@H](O)[C@H](O)[C@@H](CO)O[C@@H]2O)c1O [Compound 334, N-(3-HYDROXY-4-METHOXY-2-PYRIDYLCARBONYL)-2-AMINO-2-DEOXY-alpha-D-GLUCOPYRANOSE]	< 80%	< 80%	< 80%	< 80%	< 80%	< 80%	< 25%	< 25%	< 25%	< 25%	25 to 74%	
COc1ccnc(C(=O)Nc2ccc(C(=O)c3ccc(C(F)(F)F)cc3)cc2)c1O [Compound 406]	< 80%	< 80%	< 80%	< 80%	< 80%	< 80%	< 25%	< 25%	25 to 74%	25 to 74%	25 to 74%	
COc1ccnc(C(=O)N[C@H]2COC(=O)[C@H](Cc3ccccc3)[C@@H](OC(=O)C(C)C)[C@H](C)OC2=O)c1OC(=O)c1ccc(F)c(F)c1 [Compound 639]	< 80%	< 80%	< 80%	> 80%	< 80%	< 80%	< 25%					PUCCRT in vivo 1 Day Protectant [8, 12]: + +; pest or weed control at 100 ppm [9, 14]: < 25%; SEPTTR in vivo 1 Day Protectant [10, 14]: + +; LEPTNO in vivo 1 Day Protectant [11, 14]: + +
O=C(NCC1CCCCC1)c1ncccc1O [Compound 202]	> 80%	< 80%	< 80%	< 80%	< 80%	> 80%	< 25%					pest or weed control at 100 ppm [8, 15]: < 25%; pest or weed control at 100 ppm [9, 16]: < 25%; pest or weed control at 100 ppm [10, 16]: < 25%; pest or weed control at 100 ppm [11, 16]: < 25%
COc1ccnc(C(=O)N[C@H]2COC(=O)[C@H](Cc3ccccc3)[C@@H](OC(=O)C3CCCCC3)[C@H](C)OC2=O)c1O [Compound 392]	> 80%	< 80%	> 80%	> 80%	< 80%	< 80%	< 25%	25 to 74%	25 to 74%	25 to 74%		LEPTNO in vivo 1 Day Protectant [11, 13]: + +
CC(C)C(=O)O[C@H]1[C@H](C)OC(=O)[C@@H](NC(=O)c2nscc2O)COC(=O)[C@@H]1Cc1ccccc1 [Compound 550]	> 80%	< 80%			< 80%	> 80%	< 25%					inhibition at 25 ppm ([3]; 25 ppm in the growth medium): > 80%; inhibition at 25 ppm ([4]; 25 ppm in the growth medium): > 80%; pest or weed control at 100 ppm [8, 17]: 25 to 74%; pest or weed control at 100 ppm [9, 18]: 25 to 74%; pest or weed control at 100 ppm [10, 18]: 25 to 74%; LEPTNO in vivo 1 Day Protectant [11, 18]: + +
COc1ccnc(C(=O)Nc2cc(C)c(OC(=O)C(C)C)c(C)c2)c1O [Compound 455]	< 80%	< 80%	< 80%	> 80%	> 80%	< 80%	< 25%	< 25%	< 25%	25 to 74%	25 to 74%	
COc1ccnc(C(=O)N[C@H]2COC(=O)[C@H](Cc3ccccc3)[C@@H](OC(=O)C(C)C)[C@H](C)OC2=O)c1OC(=O)C(C)(C)C [Compound 605]	< 80%	< 80%	< 80%	< 80%	< 80%	< 80%	< 25%					PUCCRT in vivo 1 Day Protectant [8, 12]: + +; pest or weed control at 100 ppm [9, 14]: < 25%; SEPTTR in vivo 1 Day Protectant [10, 14]: + +; LEPTNO in vivo 1 Day Protectant [11, 14]: + +
COc1ccnc(C(=O)NC2CC(C)(C)CCCC2C)c1O (stereo not drawn) [Compound 277]	< 80%	< 80%	> 80%	> 80%	< 80%	< 80%	< 25%					pest or weed control at 100 ppm [8, 15]: < 25%; pest or weed control at 100 ppm [9, 16]: < 25%; SEPTTR in vivo 1 Day Protectant [10, 16]: + +; pest or weed control at 100 ppm [11, 16]: 25 to 74%
COc1ccnc(C(=O)NC2CC(C)(C)CC(C)(C(=O)OCCC(C)(C)C)C2)c1O (stereo not drawn) [Compound 261]	< 80%	< 80%	> 80%	> 80%	< 80%	> 80%	25 to 74%					pest or weed control at 100 ppm [8, 15]: 25 to 74%; pest or weed control at 100 ppm [9, 16]: < 25%; pest or weed control at 100 ppm [10, 16]: 25 to 74%; pest or weed control at 100 ppm [11, 16]: 25 to 74%
COc1ccnc(C(=O)Nc2cccc(Oc3cccc(C)c3)c2)c1O [Compound 413]	> 80%	< 80%	> 80%	> 80%	< 80%	< 80%	25 to 74%	25 to 74%	< 25%	< 25%	< 25%	
COc1ccnc(C(=O)Nc2ccc(Oc3cccc(C)c3)cc2)c1O [Compound 416]	> 80%	< 80%	> 80%	< 80%	< 80%	< 80%	< 25%	25 to 74%	< 25%	< 25%	< 25%	
COc1ccnc(C(=O)N[C@@H]2CC3CC2[C@H]2COC[C@@H]32)c1O (stereo partly drawn) [Compound 302]	< 80%	< 80%	< 80%	< 80%	< 80%	< 80%	< 25%					pest or weed control at 100 ppm [8, 15]: < 25%; pest or weed control at 100 ppm [9, 16]: < 25%; pest or weed control at 100 ppm [10, 16]: 25 to 74%; pest or weed control at 100 ppm [11, 16]: 25 to 74%
COC(=O)C(COC(=O)CCc1ccccc1)NC(=O)c1nccc(OC)c1OC(C)=O (stereo not drawn) [Compound 583]	< 80%	< 80%			< 80%	< 80%	< 25%					inhibition at 25 ppm ([3]; 25 ppm in the growth medium): < 80%; inhibition at 25 ppm ([4]; 25 ppm in the growth medium): < 80%; pest or weed control at 100 ppm [8, 17]: < 25%; pest or weed control at 100 ppm [9, 18]: < 25%; pest or weed control at 100 ppm [10, 18]: < 25%; pest or weed control at 100 ppm [11, 18]: 25 to 74%
